Laboratory results taken from patent US12202805B2, “Process for preparing (5S)-{[2-(4-carboxyphenyl)ethyl] |2-(2-{|3-chloro-4'-(trifluoromethyl)biphenyl-4-yl]methoxy}phenyl)ethyl]aminol-5,6,7,8-tetrahydroquinoline-2-carboxylic acid and its crystalline forms for use as pharmaceutically active compound” (Bayer Aktiengesellschaft, priority 2021, dated 2025).
Several values for one entry are separate records, joined by “and”; a condition that tells them apart may be missing. Equal values may be shown once.

Tested on: thromboxane A2 challenged PAH-minipig
Assay: Haemodynamics in the anesthetized thromboxane challenged minipig, intratracheal dry powder (PAP, BP)
Assay type: in vivo, Göttingen Minipigs
Conditions: for BP (absolute values) / PAP (absolute values): lactose vehicle first, test powder 1.5 mg/4 kg i.t. @90 min, each animal (n=3); for % changes vs. baseline on PAP: baseline 100.0 at 80 min, i.t. dry powder, each animal
Method: Healthy Göttingen Minipigs® Ellegaard (Ellegaard, Denmark) of both sexes and having a weight of 2-6 kg were used. The animals were sedated by i.m. administration of about 25 mg/kg ketamine and about 10 mg/kg azaperone. Anaesthesia was initiated by i.v. administration of about 2 mg/kg ketamine and about 0.3 mg/kg midazolam. Maintenance of anaesthesia was by i.v. administration of about 7.5-30 mg/kg/h ketamine and about 1-4 mg/kg/h midazolam (rate of infusion 1-4 ml/kg/h) and about 150 μg/kg/h pancuronium bromide (for example Pancuronium-Actavis). After intubation, the animals were ventilated by the ventilator at a constant respiratory volume (10-12 ml/kg, 35 breaths/min; Avea®, Viasys Healthcare, USA, or Engström Carestation, GE Healthcare, Freiburg, Germany) such that an end-tidal CO2 concentration of about 5% was achieved. Ventilation was performed with room air, enriched with about 40% oxygen (normoxia). For the measurement of the haemodynamic parameters such as pulmonary arterial pressure (PAP), blood pressure (BP) and heart rate (HR), catheters were inserted into the carotid artery to measure the blood pressure, and a Swan-Ganz® catheter was introduced in a flow-directed manner via the jugular vein into the pulmonary artery. The haemodynamic signals were recorded and evaluated by means of pressure transducers (Combitransducer, B. Braun, Melsungen, Germany)/amplifiers and Ponemah® as data acquisition software.
As reference pure Lactose vehicle was applied in the beginning of each experiment.

[1] = time 150 min, listed as ex. 6e, sesquihydrate
[2] = time 160 min, listed as ex. 6e, sesquihydrate
[3] = time 170 min, listed as ex. 6e, sesquihydrate
[4] = time 180 min, listed as ex. 6e, sesquihydrate
[5] = time 190 min, listed as ex. 6e, sesquihydrate
[6] = time 200 min, listed as ex. 6e, sesquihydrate
[7] = time 210 min, listed as ex. 6e, sesquihydrate
[8] = time 220 min, listed as ex. 6e, sesquihydrate
[9] = time 230 min, listed as ex. 6e, sesquihydrate
[10] = time 240 min, listed as ex. 6e, sesquihydrate
[11] = time 250 min, listed as ex. 6e, sesquihydrate
[12] = time 260 min, listed as ex. 6e, sesquihydrate
[13] = time 270 min, listed as ex. 6e, sesquihydrate
[14] = time 280 min, listed as ex. 6e, sesquihydrate
[15] = time 290 min, listed as ex. 6e, sesquihydrate
[16] = time 300 min, listed as ex. 6e, sesquihydrate
[17] = time 310 min, listed as ex. 6e, sesquihydrate
[18] = time not given, 1st row after 310 min, listed as ex. 6e, sesquihydrate
[19] = time not given, 2nd row after 310 min, listed as ex. 6e, sesquihydrate
[20] = time −10 min, 375 μg/kg i.t., sesquihydrate

With `O.O.O.O=C(O)c1ccc(CCN(CCc2ccccc2OCc2ccc(-c3ccc(C(F)(F)F)cc3)cc2Cl)[C@H]2CCCc3nc(C(=O)O)ccc32)cc1.O=C(O)c1ccc(CCN(CCc2ccccc2OCc2ccc(-c3ccc(C(F)(F)F)cc3)cc2Cl)[C@H]2CCCc3nc(C(=O)O)ccc32)cc1` [example 6e, (5S)—{[2-(4-Carboxyphenyl)ethyl][2-(2-{[3-chloro-4′-(trifluoromethyl)biphenyl-4-yl]methoxy}phenyl)-ethyl]amino}-5,6,7,8-tetrahydroquinoline-2-carboxylic acid sesquihydrate] the “BP (absolute values)” value (time 150 min) was 99 mmHg, the “BP (absolute values)” value [1] was 121 mmHg and 114 mmHg and the “PAP (absolute values)” value [1] was 30.3 mmHg and 29.0 mmHg and 26.6 mmHg. The “% changes vs. baseline on PAP” value (time 160 min, sesquihydrate) was 71.0% and 79.5% and 65.9%, the “BP (absolute values)” value (time 160 min) was 100 mmHg and the “BP (absolute values)” value [2] was 122 mmHg and 114 mmHg. For the same compound, the “PAP (absolute values)” value [2] was 29.0 mmHg and 30.3 mmHg and 26.9 mmHg, the “% changes vs. baseline on PAP” value (time 170 min, sesquihydrate) was 68.5% and 74.3% and 61.5% and the “BP (absolute values)” value [3] was 101 mmHg and 121 mmHg and 115 mmHg. The “PAP (absolute values)” value [3] was 28.0 mmHg and 28.3 mmHg and 25.1 mmHg, the “% changes vs. baseline on PAP” value (time 180 min, sesquihydrate) was 63.2% and 80.8% and 62.0% and the “BP (absolute values)” value (time 180 min) was 99 mmHg. The “BP (absolute values)” value [4] was 119 mmHg and 115 mmHg, the “PAP (absolute values)” value [4] was 25.8 mmHg and 30.8 mmHg and 25.3 mmHg and the “% changes vs. baseline on PAP” value (time 190 min, sesquihydrate) was 61.5% and 80.8% and 58.6%. For the same compound, the “BP (absolute values)” value (time 190 min) was 99 mmHg, the “BP (absolute values)” value [5] was 123 mmHg and 114 mmHg and the “PAP (absolute values)” value [5] was 30.8 mmHg and 23.9 mmHg. For the same compound, the “% changes vs. baseline on PAP” value (time 200 min, sesquihydrate) was 62.3% and 80.3% and 60.2%, the “BP (absolute values)” value (time 200 min) was 98 mmHg and the “BP (absolute values)” value [6] was 116 mmHg and 113 mmHg. The “PAP (absolute values)” value [6] was 25.5 mmHg and 30.6 mmHg and 24.6 mmHg, the “% changes vs. baseline on PAP” value (time 210 min, sesquihydrate) was 61.0% and 80.7% and 59.4% and the “BP (absolute values)” value (time 210 min) was 99 mmHg. For the same compound, the “BP (absolute values)” value [7] was 117 mmHg and 116 mmHg, the “PAP (absolute values)” value [7] was 25.0 mmHg and 30.8 mmHg and 24.2 mmHg and the “% changes vs. baseline on PAP” value (time 220 min, sesquihydrate) was 59.5% and 86.3% and 57.8%. The “BP (absolute values)” value (time 220 min) was 97 mmHg, the “BP (absolute values)” value [8] was 123 mmHg and 114 mmHg and the “PAP (absolute values)” value [8] was 24.3 mmHg and 32.9 mmHg and 23.6 mmHg. For the same compound, the “% changes vs. baseline on PAP” value (time 230 min, sesquihydrate) was 58.6% and 82.6% and 57.8%, the “BP (absolute values)” value (time 230 min) was 97 mmHg and the “BP (absolute values)” value [9] was 119 mmHg and 114 mmHg. The “PAP (absolute values)” value [9] was 24.0 mmHg and 31.5 mmHg and 23.6 mmHg, the “% changes vs. baseline on PAP” value (time 240 min, sesquihydrate) was 59.3% and 81.5% and 57.6% and the “BP (absolute values)” value (time 240 min) was 97 mmHg. The “BP (absolute values)” value [10] was 119 mmHg and 112 mmHg, the “PAP (absolute values)” value [10] was 24.3 mmHg and 31.0 mmHg and 23.5 mmHg and the “% changes vs. baseline on PAP” value (time 250 min, sesquihydrate) was 59.3% and 82.2% and 56.1%. The “BP (absolute values)” value (time 250 min) was 97 mmHg, the “BP (absolute values)” value [11] was 118 mmHg and 111 mmHg and the “PAP (absolute values)” value [11] was 24.2 mmHg and 31.3 mmHg and 22.9 mmHg. For the same compound, the “% changes vs. baseline on PAP” value (time 260 min, sesquihydrate) was 58.8% and 82.7% and 57.6%, the “BP (absolute values)” value (time 260 min) was 96 mmHg and the “BP (absolute values)” value [12] was 116 mmHg and 112 mmHg. For the same compound, the “PAP (absolute values)” value [12] was 24.0 mmHg and 31.5 mmHg and 23.5 mmHg, the “% changes vs. baseline on PAP” value (time 270 min, sesquihydrate) was 59.9% and 78.3% and 55.4% and the “BP (absolute values)” value (time 270 min) was 99 mmHg. For the same compound, the “BP (absolute values)” value [13] was 115 mmHg and 109 mmHg, the “PAP (absolute values)” value [13] was 24.5 mmHg and 29.8 mmHg and 22.6 mmHg and the “% changes vs. baseline on PAP” value (time 280 min, sesquihydrate) was 58.4% and 78.3% and 55.9%. The “BP (absolute values)” value [14] was 97 mmHg and 111 mmHg and 110 mmHg, the “PAP (absolute values)” value [14] was 23.9 mmHg and 29.8 mmHg and 22.8 mmHg and the “% changes vs. baseline on PAP” value (time 290 min, sesquihydrate) was 57.4% and 79.6% and 53.9%. For the same compound, the “BP (absolute values)” value [15] was 97 mmHg and 110 mmHg and 107 mmHg, the “PAP (absolute values)” value [15] was 23.5 mmHg and 30.3 mmHg and 22.0 mmHg and the “% changes vs. baseline on PAP” value (time 300 min, sesquihydrate) was 60.1% and 78.7% and 54.5%. For the same compound, the “BP (absolute values)” value (time 300 min) was 98 mmHg, the “BP (absolute values)” value [16] was 109 mmHg and 108 mmHg and the “PAP (absolute values)” value [16] was 24.6 mmHg and 30.0 mmHg and 22.2 mmHg. The “% changes vs. baseline on PAP” value (time 310 min, sesquihydrate) was 58.4% and 77.6% and 53.7%, the “BP (absolute values)” value (time 310 min) was 97 mmHg and the “BP (absolute values)” value [17] was 109 mmHg and 105 mmHg. For the same compound, the “PAP (absolute values)” value [17] was 23.9 mmHg and 29.6 mmHg and 21.9 mmHg, the “% changes vs. baseline on PAP” value (time 320 min, sesquihydrate) was 61.8% and 76.3% and 55.1% and the “% changes vs. baseline on PAP” value (time 330 min, sesquihydrate) was 61.3% and 74.8% and 53.0%. For the same compound, the “BP (absolute values)” value (time not given, 1st row after 310 min) was 94 mmHg, the “BP (absolute values)” value [18] was 108 mmHg and 105 mmHg and the “PAP (absolute values)” value [18] was 25.3 mmHg and 29.1 mmHg and 22.5 mmHg. The “BP (absolute values)” value (time not given, 2nd row after 310 min) was 97 mmHg, the “BP (absolute values)” value [19] was 108 mmHg and 105 mmHg and the “PAP (absolute values)” value [19] was 25.1 mmHg and 28.5 mmHg and 21.6 mmHg. The “BP (mean)” value (time −10 min, 375 μg/kg i.t.) was 99 mmHg, the “BP (mean)” value [20] was 107 mmHg and 119 mmHg and the “PAP(mean)” value [20] was 42.0 mmHg and 36.4 mmHg and 37.5 mmHg.
